The source of these data is patent US20260274836A1, “NOVEL HEPATOSELECTIVE POLYADENYLATING POLYMERASES INHIBITORS AND THEIR METHOD OF USE” (Baruch S. Blumberg Institute, priority 2022, published 2026).

Like-named read-outs stand apart in the source and are kept apart here.

The subject of series [1] is 18f-NLuc reporter virus (HM175/18f HAV). Description: Antiviral activity against human hepatitis A virus, 18f-NLuc reporter virus in Huh-7 cells. It is filed as cell-based, Human Hepatitis A Virus (Hepatovirus A). Here is the method:
Assay for Antiviral Activity Against Human Hepatitis A Virus (Hepatovirus A).
(§1) Assays for the anti-HAV activity of the hepatoselective DHQ compounds were carried out in Huh-7 human hepatoma cells using the 18f-NLuc reporter virus, which expresses nanoluciferase (NLuc) from sequence inserted into the polyprotein coding region of the HM175/18f HAV genome between the VP1pX and 2B coding sequences (Yamane et al., 2019). The method was modified minimally from that described by Misumi et al. for iminosugar compounds (Misumi et al., 2021). Cells (approximately […]) were plated in wells of a 96-well plate with Dulbecco's modified Eagle medium (DMEM) and 10% fetal bovine serum. The cells were inoculated 24 hrs later with 18f-NLuc virus (approximately 10^6-10^7 genome equivalents) in medium containing increasing concentrations of the compounds of interest. The cells were re-incubated for 48 hrs at 37° C. in a 5% CO2 environment, then lysed in 1× passive lysis buffer (Promega) for 15 min at room temperature. Cell lysates were transferred to an opaque white 96-well plate (Corning, 3912) and NLuc assay carried out using the NLuc GLOW Assay kit (Nanolight Technology). Luminescence was measured using a Biotek Synergy II multi-mode plate reader (BioTek Instruments). The percent inhibition of replication was calculated by determining the reduction in NLuc activity from that expressed by infected cells incubated in parallel in the absence of compound, and 50% inhibitory endpoints estimated by fitting the data to a four parameter variable slope logistic curve using Prism 9 for Mac OS software (GraphPad). Cell toxicity of the compounds was assessed using the WST-1 Cell Proliferation Reagent (Sigma-Aldrich) at the end of the treatment period in parallel cultures of uninfected cells, with WST-1 reagent added to cultures for 1 hr prior to harvest and O.D. reading.
as §1, with “Additional exemplary compounds of the present invention are evaluated for anti-HAV activity in accordance with certain assays described hereinabove. As discussed above, assays” for “Assays”, “10^6-107” for “10^6-10^7”

A further series concerns the target T1, OATP1B1 (Homo sapiens, UniProt Q9Y6L6).
T1 construct: expressed in transfected cells; host or cells: HEK293
T1 sequence (Q9Y6L6 1-691): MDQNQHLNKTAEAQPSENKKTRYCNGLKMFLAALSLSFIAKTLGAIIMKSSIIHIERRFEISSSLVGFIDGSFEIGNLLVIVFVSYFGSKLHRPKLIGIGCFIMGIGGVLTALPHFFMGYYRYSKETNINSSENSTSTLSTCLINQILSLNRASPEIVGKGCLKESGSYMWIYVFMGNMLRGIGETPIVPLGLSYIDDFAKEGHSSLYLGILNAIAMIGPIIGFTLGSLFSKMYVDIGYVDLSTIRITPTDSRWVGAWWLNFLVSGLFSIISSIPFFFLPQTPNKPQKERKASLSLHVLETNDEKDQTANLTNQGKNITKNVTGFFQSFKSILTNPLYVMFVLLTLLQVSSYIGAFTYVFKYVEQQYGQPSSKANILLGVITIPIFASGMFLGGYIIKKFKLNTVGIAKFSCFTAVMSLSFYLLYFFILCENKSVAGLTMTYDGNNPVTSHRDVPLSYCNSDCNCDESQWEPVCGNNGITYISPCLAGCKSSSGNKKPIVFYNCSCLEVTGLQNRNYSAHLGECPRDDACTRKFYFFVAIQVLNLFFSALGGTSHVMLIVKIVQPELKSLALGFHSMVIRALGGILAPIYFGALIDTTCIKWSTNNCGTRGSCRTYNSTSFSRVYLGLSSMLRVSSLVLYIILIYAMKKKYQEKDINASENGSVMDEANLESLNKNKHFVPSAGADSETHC
Description: OATP1B1 transporter substrate uptake in OATP1B1-HEK293 cells. The series is classed as in vitro ADME. The settings on record: for Uptake Ratio (−/+Inhibitor): OATP1B1-HEK293 cells, inhibitor Rifamycin SV. How it is done:
(§2) Protocol for identification of compounds that are substrates of transporters OATPIBI and OATPIB3. Transfected HEK293 and vector control HEK293 cells were cultured in 24-well poly-D-lysine or collagen-coated tissue culture plates ([…]) for 2 and 10 minutes respectively in transport buffer (HBSSg, pH 7.4, pre-warmed to 37° C.). At a defined time point, the uptake experiments were stopped by removing dosing solution followed by two washes of ice-cold HBSSg buffer. The cells were lysed for 2 minutes with 75% ACN containing an appropriate internal standard (when available). Lysis buffer were chilled to −20° C., and the plate was kept on ice during lysis. The cell lysate was transferred into a 96-well plate for sample analysis with LC-MS/MS analysis to determine concentration of test compound in cell lysate. The uptake of test compounds was normalized by total cell protein using the BCA Protein Assay Kit following the manufacturer's protocol. The inhibitor Rifamycin SV was used to block OATP1B1 and OATP1B3 transporter activity in order to determine uptake ratios.

The target of a further series is T2, OATP1B3 (Homo sapiens, UniProt Q9NPD5).
T2 construct: expressed in transfected cells; host or cells: HEK293
T2 sequence (Q9NPD5 1-702): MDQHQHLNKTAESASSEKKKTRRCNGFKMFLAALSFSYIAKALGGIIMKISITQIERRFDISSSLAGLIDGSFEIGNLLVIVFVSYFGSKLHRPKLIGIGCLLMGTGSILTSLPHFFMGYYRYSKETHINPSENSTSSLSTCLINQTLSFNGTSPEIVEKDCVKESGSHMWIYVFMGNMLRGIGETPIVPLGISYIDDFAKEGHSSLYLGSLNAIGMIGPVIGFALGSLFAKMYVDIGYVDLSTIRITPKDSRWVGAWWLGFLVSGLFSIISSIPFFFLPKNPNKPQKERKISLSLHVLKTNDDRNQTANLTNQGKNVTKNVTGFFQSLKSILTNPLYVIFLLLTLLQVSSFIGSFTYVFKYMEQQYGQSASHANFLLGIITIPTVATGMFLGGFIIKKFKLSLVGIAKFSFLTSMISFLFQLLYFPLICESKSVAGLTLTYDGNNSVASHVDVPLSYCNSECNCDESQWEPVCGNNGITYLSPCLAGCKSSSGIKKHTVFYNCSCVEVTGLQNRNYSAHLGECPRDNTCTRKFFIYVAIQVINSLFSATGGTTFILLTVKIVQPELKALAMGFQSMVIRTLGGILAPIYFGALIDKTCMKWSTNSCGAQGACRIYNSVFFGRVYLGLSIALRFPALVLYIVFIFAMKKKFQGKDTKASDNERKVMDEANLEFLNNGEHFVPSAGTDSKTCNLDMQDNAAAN
As to the kind of experiment: OATP1B3 transporter substrate uptake in OATP1B3-HEK293 cells. The series is classed as in vitro ADME. Particulars: for Uptake Ratio (−/+Inhibitor): OATP1B3-HEK293 cells, inhibitor Rifamycin SV. How it is done: as §2

Another series is described as follows: in vitro. The series is classed as cell-based. The settings on record: human. How it is done:
Assays for the anti-HAV activity of the hepatoselective DHQ compounds were carried out in Huh-7 human hepatoma cells using the 18f-NLuc reporter virus, which expresses nanoluciferase (NLuc) from sequence inserted into the polyprotein coding region of the HM175/18f HAV genome between the VP1pX and 2B coding sequences (Yamane et al., 2019). The method was modified minimally from that described by Misumi et al. for iminosugar compounds (Misumi et al., 2021). Cells (approximately […]) were plated in wells of a 96-well plate with Dulbecco's modified Eagle medium (DMEM) and 10% fetal bovine serum. The cells were inoculated 24 hrs later with 18f-NLuc virus (approximately 10^6-10^7 genome equivalents) in medium containing increasing concentrations of the compounds of interest. […] Luminescence was measured using a Biotek Synergy II multi-mode plate reader (BioTek Instruments). […] Cell toxicity of the compounds was assessed using the WST-1 Cell Proliferation Reagent (Sigma-Aldrich) at the end of the treatment period in parallel cultures of uninfected cells, with WST-1 reagent added to cultures for 1 hr prior to harvest and O.D. reading.
Additional exemplary compounds of the present invention are evaluated for anti-HAV activity in accordance with certain assays described hereinabove. […] Luminescence was measured using a Biotek Synergy II multi-mode plate reader (BioTek Instruments). […]

For series [2], the target named is interaction of PAPD5 with ZCCHC14 (Homo sapiens, UniProt Q8NDF8). As to the kind of experiment: Interaction of PAPD5 with ZCCHC14.
Sequence of interaction of PAPD5 with ZCCHC14 (Q8NDF8 whole entry): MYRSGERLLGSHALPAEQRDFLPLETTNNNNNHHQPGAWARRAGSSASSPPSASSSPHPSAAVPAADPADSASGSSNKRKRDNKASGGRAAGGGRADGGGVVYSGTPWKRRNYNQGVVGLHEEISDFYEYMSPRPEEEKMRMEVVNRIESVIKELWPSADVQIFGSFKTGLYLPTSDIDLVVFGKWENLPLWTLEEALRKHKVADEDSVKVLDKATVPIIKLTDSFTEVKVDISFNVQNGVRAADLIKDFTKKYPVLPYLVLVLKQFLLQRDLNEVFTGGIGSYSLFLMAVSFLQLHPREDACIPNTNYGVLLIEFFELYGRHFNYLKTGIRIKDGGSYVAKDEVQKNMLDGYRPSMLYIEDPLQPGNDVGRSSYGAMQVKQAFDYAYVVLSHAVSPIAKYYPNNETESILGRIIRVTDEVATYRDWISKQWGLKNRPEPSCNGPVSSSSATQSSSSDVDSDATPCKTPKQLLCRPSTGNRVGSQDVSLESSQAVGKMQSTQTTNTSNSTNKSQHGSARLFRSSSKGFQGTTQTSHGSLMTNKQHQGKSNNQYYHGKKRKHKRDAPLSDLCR
In series [3] the test system is HAV. The settings on record: cited from earlier work.
Series [4] deals with HAV. The settings on record: Ifnar1^−/− mice, cited from earlier work.
Setting [5] is: read-out: EC50 HAV, Huh-7 cells, 18f-NLuc virus, 48 hrs.
The mark [6] stands for this setting: Hepatovirus A, Huh-7, 48 h, read-out: EC50 HAV (nM), Huh-7 cells, 18f-NLuc virus, 48 hrs.

The term EC50 denotes the concentration that produces a half-maximal response. Broadly, the CC50 is the concentration that lowers cell viability or growth by half.

Regarding `COc1cc2c(cc1OCCCCCCCCC(=O)O)C[C@@H](C(C)C)n1cc(C(=O)O)c(=O)cc1-2` [Example B], the concentration for a half-maximal effect (EC50) in series [1] (setting [5]) amounted to 63 nM.

Consider `COc1cc2c(cc1OCCCCCCC(=O)O)C[C@@H](C(C)C)n1cc(C(=O)O)c(=O)cc1-2` [Example G], for which the EC50 in series [1] (setting [6]) was 278 nM.

Regarding `COc1cc2c(cc1OCCc1ccc(C(=O)O)cc1)C[C@@H](C(C)C)n1cc(C(=O)O)c(=O)cc1-2` [Example D], in series [1] (setting [6]), the EC50 came out at 245 nM.

As for `C[C@]12CC[C@@H]3c4ccc(O)cc4CC[C@H]3[C@@H]1CC[C@@H]2O[C@@H]1O[C@H](C(=O)O)[C@@H](O)[C@H](O)[C@H]1O` [Estradiol 17-β Glucuronide], the “Uptake Ratio (−/+Inhibitor)” value on OATP1B1 (test concentration 10 μM) was 81.84; at OATP1B3 (test concentration 10 μM), 86.15. For the same molecule, the “Uptake Ratio (Transporter(−Inhibitor)/Mock(−Inhibitor))” value at OATP1B1 (OATP1B1-HEK293 vs mock HEK293, test concentration 10 μM) is listed as 48.70; at OATP1B3 (OATP1B3-HEK293 vs mock HEK293, test concentration 10 μM), 98.86.

As for `COc1cc2c(cc1OCCc1cccc(C(=O)O)c1)C[C@@H](C(C)C)n1cc(C(=O)O)c(=O)cc1-2` [Example C], in series [1] (setting [6]), the EC50 was found to be 325 nM.

As for `COc1cc2c(cc1OCCCCCCCCC(=O)O)C[C@@H](C(C)C)n1cc(C(=O)O)c(=O)cc1-2` [Example 8, (S)-9-((8-carboxyoctyl)oxy)-6-isopropyl-10-methoxy-2-oxo-6,7-dihydro-2H-pyrido[2,1-a]isoquinoline-3-carboxylic acid], in series [1] (Hepatovirus A, Huh-7, 48 h, Huh-7 cells, 18f-NLuc virus, 48 hrs), the concentration for a half-maximal effect (EC50) stood at 18.2 nM. In “in vitro”, the CC50 at 48 h was > 10 µM.

Regarding `COc1cc2c(cc1OCCCCCCCCC(=O)O)C[C@@H](C(C)C)n1cc(C(=O)O)c(=O)cc1-2` [Example A], in series [1] (setting [5]), the EC50 stood at 67 nM.

For the molecule `COc1cc2c(cc1OCCCCCC(C)(C)C(=O)O)C[C@@H](C(C)C)n1cc(C(=O)O)c(=O)cc1-2` [Example F], the EC50 in series [1] (setting [6]) stood at 25 nM.

For `COc1cc2c(cc1OCCCc1ccc(C(=O)O)cc1)C[C@@H](C(C)C)n1cc(C(=O)O)c(=O)cc1-2` [Example E], the concentration giving a half-maximal response (EC50) in series [1] (setting [6]) was 382 nM.

For `COCCCOc1cc2c(cc1OC)-c1cc(=O)c(C(=O)O)cn1[C@H](C(C)C)C2` [DHQ-1], the results for the “Uptake Ratio (−/+Inhibitor)” value at OATP1B1 (test concentration 1 μM) and at OATP1B3 (test concentration 1 μM) were 0.38 and 0.42, respectively. The “Uptake Ratio (Transporter(−Inhibitor)/Mock(−Inhibitor))” value at OATP1B1 (OATP1B1-HEK293 vs mock HEK293, test concentration 1 μM) came out at 0.71; at OATP1B3 (OATP1B3-HEK293 vs mock HEK293, test concentration 1 μM) it was 0.56. Further, the “Interaction of PAPD5 with ZCCHC14” value in series [2] is recorded as “prevents the interaction of PAPD5 with ZCCHC14”. Also, the “HAV replication in cultured cells” value in the series on HAV [3] is listed as “inhibit HAV replication”. In the series with HAV [4] (given shortly after intravenous virus challenge), the Prevention of infection entry is “completely prevented infection”. In addition, the “HAV replication in mice” value in the series with HAV [4] (oral treatment) is “blocked HAV replication”.

Turning to `COc1cc2c(cc1OCCCCCCCCC(=O)O)C[C@@H](C(C)C)n1cc(C(=O)O)c(=O)cc1-2` [Example H], the EC50 in series [1] (setting [5]) amounted to 18.2 nM.
